In paper PMC11971462, “Generation and validation of a novel multitarget small molecule in glioblastoma” (Cell Death & Disease, 2025):
Like-named read-outs stand apart in the source and are kept apart here.

System: GNS166 cells

In the case of `C#CCN(Cc1cc2cc(OCCCN3CCCCC3)ccc2n1S(=O)(=O)c1ccccc1)C(=O)CCCCCCC(=O)NO` [DDI], the “PCBP3 log2FoldChange” value is reported as 5.457, the “PCDH15 log2FoldChange” value is reported as 3.424 and the “PCDH19 log2FoldChange” value is reported as 2.11. The “PCDHA13 log2FoldChange” value was 3.483, the “PCOLCE2 log2FoldChange” value was 2.03 and the “PCP4L1 log2FoldChange” value was 4.897. The “PCSK1 log2FoldChange” value was 3.118, the “PDE2A log2FoldChange” value was 2.038 and the “PDE3A log2FoldChange” value was 2.332. For the same molecule, the “PDE4C log2FoldChange” value was 2.296, the “PDK4 log2FoldChange” value was 2.588 and the “PDX1 log2FoldChange” value was 3.554. For the same molecule, the “PLA2G4A log2FoldChange” value was 2.126, the “PLCXD2 log2FoldChange” value was 2.533 and the “PLEK2 log2FoldChange” value was 2.459. The “PLEKHA6 log2FoldChange” value was 2.086, the “PLP1 log2FoldChange” value was 2.506 and the “PPM1N log2FoldChange” value was 2.335. For the same molecule, the “PPP1R1B log2FoldChange” value was 4.39, the “PPP1R16B log2FoldChange” value was 3.376 and the “PPP4R4 log2FoldChange” value was 3.111. For the same molecule, the “PRR29 log2FoldChange” value was 3.599, the “PRRX2 log2FoldChange” value was 2.314 and the “PRSS3 log2FoldChange” value was 3.932. The “PSD2 log2FoldChange” value was 3.562, the “PSG1 log2FoldChange” value was 5.24 and the “PSG4 log2FoldChange” value was 4.564. For the same molecule, the “PSG5 log2FoldChange” value was 4.838, the “PSG9 log2FoldChange” value was 3.658 and the “PTGS1 log2FoldChange” value was 4.0843. The “PTPN5 log2FoldChange” value was 4.236, the “PTPRO log2FoldChange” value was 3.032 and the “PTPRQ log2FoldChange” value was 3.237. The “QPRT log2FoldChange” value was 2.003, the “RAB39A log2FoldChange” value was 2.508 and the “RADX log2FoldChange” value was 2.3792. For the same molecule, the “RAET1G log2FoldChange” value was 2.196, the “RAP1GAP log2FoldChange” value was 2.521 and the “RARB log2FoldChange” value was 2.002. The “RASD2 log2FoldChange” value was 3.718, the “RASIP1 log2FoldChange” value was 2.128 and the “RDH12 log2FoldChange” value was 3.657. The “REM1 log2FoldChange” value was 2.662, the “RFPL4A log2FoldChange” value was 5.081 and the “RFTN2 log2FoldChange” value was 4.233. For the same molecule, the “RGS9 log2FoldChange” value was 5.175, the “RIMBP2 log2FoldChange” value was 6.452 and the “RIMS4 log2FoldChange” value was 5.004. For the same molecule, the “RNF165 log2FoldChange” value was 3.79, the “RUNDC3A log2FoldChange” value was 4.619 and the “S100B log2FoldChange” value was 3.045. For the same molecule, the “SAMD11 log2FoldChange” value was 4.391, the “SCEL log2FoldChange” value was 2.003 and the “SCIN log2FoldChange” value was 3.412. For the same molecule, the “SCN3A log2FoldChange” value was 2.697, the “SCN4B log2FoldChange” value was 2.757 and the “SCN5A log2FoldChange” value was 2.371. The “SCN9A log2FoldChange” value was 2.594, the “SCUBE1 log2FoldChange” value was 7.641 and the “SEMA3F log2FoldChange” value was 2.777. The “SEMA5A log2FoldChange” value was 2.383, the “SERPING1 log2FoldChange” value was 4.327 and the “SERPINI1 log2FoldChange” value was 3.966. The “SERTM1 log2FoldChange” value was 2.165, the “SGIP1 log2FoldChange” value was 2.3607 and the “SH2D3C log2FoldChange” value was 5.237. The “SHANK1 log2FoldChange” value was 6.717, the “SHF log2FoldChange” value was 2.222 and the “SHISA7 log2FoldChange” value was 4.7. For the same molecule, the “SLC4A5 log2FoldChange” value was 2.594, the “SLC6A17 log2FoldChange” value was 2.657 and the “SLC7A2 log2FoldChange” value was 3.19. The “SLC7A10 log2FoldChange” value was 6.012, the “SLC8A2 log2FoldChange” value was 4.387 and the “SLC9A9 log2FoldChange” value was 2.124. For the same molecule, the “SLC16A12 log2FoldChange” value was 2.212, the “SLC22A31 log2FoldChange” value was 5.211 and the “SLC25A27 log2FoldChange” value was 5.956. The “SLC44A3 log2FoldChange” value was 2.701, the “SLC45A1 log2FoldChange” value was 2.018 and the “SLIT2 log2FoldChange” value was 2.219. The “SLITRK3 log2FoldChange” value was 2.145, the “SMPDL3B log2FoldChange” value was 3.134 and the “SNCB log2FoldChange” value was 4.848. The “SNX22 log2FoldChange” value was 2.0694, the “SNX32 log2FoldChange” value was 2.323 and the “SOBP log2FoldChange” value was 2.326. For the same molecule, the “SPANXC log2FoldChange” value was 2.711, the “SPINK2 log2FoldChange” value was 3.038 and the “SPNS2 log2FoldChange” value was 3.326. The “SSTR2 log2FoldChange” value was 2.236, the “ST3GAL5 log2FoldChange” value was 2.386 and the “ST6GALNAC3 log2FoldChange” value was 2.853. The “STAT4 log2FoldChange” value was 3.605, the “STC1 log2FoldChange” value was 3.854 and the “STMN3 log2FoldChange” value was 2.874. The “STUM log2FoldChange” value was 6.45, the “STX1B log2FoldChange” value was 2.758 and the “STXBP5L log2FoldChange” value was 2.17. For the same molecule, the “SYNPO2 log2FoldChange” value was 2.428, the “SYP log2FoldChange” value was 4.307 and the “SYT2 log2FoldChange” value was 5.115. The “SYT5 log2FoldChange” value was 6.667, the “SYT13 log2FoldChange” value was 2.882 and the “SYTL3 log2FoldChange” value was 2.536. For the same molecule, the “TAGLN3 log2FoldChange” value was 3.305, the “TBC1D8B log2FoldChange” value was 2.1255 and the “TCEAL5 log2FoldChange” value was 4.062. For the same molecule, the “TCIM log2FoldChange” value was 3.258, the “TEC log2FoldChange” value was 4.937 and the “TEKT3 log2FoldChange” value was 2.698. The “TESC log2FoldChange” value was 5.269, the “TEX19 log2FoldChange” value was 3.325 and the “THSD7B log2FoldChange” value was 3.117. The “TJP3 log2FoldChange” value was 5.915, the “TLCD3B log2FoldChange” value was 2.485 and the “TLR9 log2FoldChange” value was 2.809. For the same molecule, the “TLX2 log2FoldChange” value was 2.462, the “TMEM47 log2FoldChange” value was 2.003 and the “TMEM74B log2FoldChange” value was 3.647. The “TMEM74 log2FoldChange” value was 4.084, the “TMEM92 log2FoldChange” value was 3.463 and the “TMEM139 log2FoldChange” value was 3.161. For the same molecule, the “TMEM145 log2FoldChange” value was 3.464, the “TMEM151B log2FoldChange” value was 3.192 and the “TMEM156 log2FoldChange” value was 3.7131. The “TMOD1 log2FoldChange” value was 2.144, the “TNFSF18 log2FoldChange” value was 2.976 and the “TNNI3 log2FoldChange” value was 7.061. The “TRPC4 log2FoldChange” value was 3.104, the “TTYH1 log2FoldChange” value was 4.78 and the “TUBA3C log2FoldChange” value was 6.251. For the same molecule, the “TUSC3 log2FoldChange” value was 3.3304, the “UNC5B log2FoldChange” value was 3.5878 and the “USH1G log2FoldChange” value was 7.012. For the same molecule, the “VAV3 log2FoldChange” value was 2.016, the “VGLL2 log2FoldChange” value was 2.35 and the “VTCN1 log2FoldChange” value was 4.133. The “VWA1 log2FoldChange” value was 2.457, the “WNT2B log2FoldChange” value was 2.031 and the “WNT10B log2FoldChange” value was 3.628. For the same molecule, the “WSCD1 log2FoldChange” value was 2.865, the “XYLT1 log2FoldChange” value was 5.474 and the “YPEL4 log2FoldChange” value was 2.644. For the same molecule, the “ZCCHC12 log2FoldChange” value was 2.836, the “ZDHHC11B log2FoldChange” value was 2.194 and the “ZDHHC22 log2FoldChange” value was 3.089. For the same molecule, the “ZFP92 log2FoldChange” value was 2.85, the “ZMYND10 log2FoldChange” value was 2.335 and the “ZNF208 log2FoldChange” value was 3.37. For the same molecule, the Direction (gene ALOX15B) was “Up”, the Direction (gene AMBN) was “Up” and the Direction (gene APELA) was “Up”. The Direction (gene ATP2B3) was “Up”, the Direction (gene B3GALT5) was “Up” and the Direction (gene BCL11B) was “Up”. For the same molecule, the Direction (gene BRS3) was “Up”, the Direction (gene CA4) was “Up” and the Direction (gene CA7) was “Up”. For the same molecule, the Direction (gene CAPNS2) was “Up”, the Direction (gene CCN5) was “Up” and the Direction (gene CD1D) was “Up”. For the same molecule, the Direction (gene CDC20B) was “Up”, the Direction (gene CELF4) was “Up” and the Direction (gene CES1) was “Up”. The Direction (gene CFAP52) was “Up”, the Direction (gene CHRNA3) was “Up” and the Direction (gene CRB1) was “Up”. The Direction (gene CSAG1) was “Up”, the Direction (gene CSDC2) was “Up” and the Direction (gene CUX2) was “Up”. For the same molecule, the Direction (gene CXorf51A) was “Up”, the Direction (gene DES) was “Up” and the Direction (gene DGKK) was “Up”. The Direction (gene EBF2) was “Up”, the Direction (gene EREG) was “Up” and the Direction (gene FAM9C) was “Up”. The Direction (gene FAM166A) was “Up”, the Direction (gene FER1L5) was “Up” and the Direction (gene FGD3) was “Up”. The Direction (gene FRG2) was “Up”, the Direction (gene FRMD7) was “Up” and the Direction (gene GAS7) was “Up”. For the same molecule, the Direction (gene GMNC) was “Up”, the Direction (gene GOLGA8F) was “Up” and the Direction (gene GREM2) was “Up”. The Direction (gene GUCY2F) was “Up”, the Direction (gene HOXC13) was “Up” and the Direction (gene IBSP) was “Up”. The Direction (gene IRAG1) was “Up”, the Direction (gene IRF6) was “Up” and the Direction (gene KANK3) was “Up”. For the same molecule, the Direction (gene KCNA1) was “Up”, the Direction (gene KCNH6) was “Up” and the Direction (gene KCNK5) was “Up”. The Direction (gene KCNK15) was “Up”, the Direction (gene KCNN2) was “Up” and the Direction (gene KCNQ1) was “Up”. The Direction (gene LHFPL1) was “Up”, the Direction (gene LHX5) was “Up” and the Direction (gene LOC102723623) was “Up”. For the same molecule, the Direction (gene LRRC15) was “Up”, the Direction (gene MAGEA2) was “Up” and the Direction (gene MAGEA2B) was “Up”. For the same molecule, the Direction (gene MAGEA6) was “Up”, the Direction (gene MAPK15) was “Up” and the Direction (gene ME1) was “Up”. For the same molecule, the Direction (gene MEIOSIN) was “Up”, the Direction (gene MMEL1) was “Up” and the Direction (gene MMP12) was “Up”. The Direction (gene MYL2) was “Up”, the Direction (gene NOS3) was “Up” and the Direction (gene NTRK1) was “Up”. For the same molecule, the Direction (gene PAGE4) was “Up”, the Direction (gene PAX2) was “Up” and the Direction (gene PCDHA1) was “Up”. For the same molecule, the Direction (gene PITX3) was “Up”, the Direction (gene PLAC1) was “Up” and the Direction (gene PLK5) was “Up”. The Direction (gene PLXDC1) was “Up”, the Direction (gene PNLIPRP3) was “Up” and the Direction (gene POU3F4) was “Up”. The Direction (gene PSG6) was “Up”, the Direction (gene PTPRN) was “Up” and the Direction (gene RPRML) was “Up”. The Direction (gene RSPO1) was “Up”, the Direction (gene SCN4A) was “Up” and the Direction (gene SCRT1) was “Up”. The Direction (gene SH2D3A) was “Up”, the Direction (gene SHH) was “Up” and the Direction (gene SIDT1) was “Up”. For the same molecule, the Direction (gene SLC4A9) was “Up”, the Direction (gene SLC11A1) was “Up” and the Direction (gene SLC18A1) was “Up”. For the same molecule, the Direction (gene SLC19A3) was “Up”, the Direction (gene SLC35F3) was “Up” and the Direction (gene SLC36A2) was “Up”. The Direction (gene STMN4) was “Up”, the Direction (gene STRC) was “Up” and the Direction (gene SYT1) was “Up”. For the same molecule, the Direction (gene TAC3) was “Up”, the Direction (gene TMEM196) was “Up” and the Direction (gene TNIP3) was “Up”. For the same molecule, the Direction (gene TSPAN18) was “Up”, the Direction (gene TTC9B) was “Up” and the Direction (gene UGT3A1) was “Up”. The Direction (gene UNC5A) was “Up”, the Direction (gene VWA3B) was “Up” and the Direction (gene ZBBX) was “Up”. For the same molecule, the Direction (gene ZNF479) was “Up”.
